Data published in patent publication US4657897A, “N^6 -substituted adenosines for treating pain” (Warner-Lambert Company, priority 1985, dated 1987).

Biological target: T1, adenosine A1 receptor (Rattus norvegicus, UniProt P25099)
T1 construct: Whole brain minus cerebellum and brainstem from male Long Evans rats; from tissue; host or cells: rat whole brain minus cerebellum and brainstem (male Long Evans), membranes
T1 sequence (P25099 1-326): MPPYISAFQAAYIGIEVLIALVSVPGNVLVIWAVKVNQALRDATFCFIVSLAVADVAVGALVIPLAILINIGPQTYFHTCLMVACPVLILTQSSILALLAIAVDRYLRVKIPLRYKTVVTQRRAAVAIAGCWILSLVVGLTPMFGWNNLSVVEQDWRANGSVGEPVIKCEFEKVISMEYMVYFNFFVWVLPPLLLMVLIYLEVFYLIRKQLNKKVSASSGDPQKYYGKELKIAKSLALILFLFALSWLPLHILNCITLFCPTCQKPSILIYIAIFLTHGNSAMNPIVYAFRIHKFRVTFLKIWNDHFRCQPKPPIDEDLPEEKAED
Test: Adenosine Receptor Binding--A1 Receptor Affinity (RBA1), [3H]-CHA binding, rat whole brain membranes
Parameters: species or system rat (male Long Evans)
Conditions: 1.0 nM [3H]-CHA, 25° C., 1 h
Procedure: Adenosine Receptor Binding--A1 Receptor Affinity (RBA1)
Whole brain minus cerebellum and brainstem from male Long Evans rats (150-200 g) was homogenized in 30 volumes of ice-cold 0.05M Tris-HCl buffer pH 7.7 using a Brinkman Polytron PT-10, (setting number 6 for 20 seconds) and centrifuged for ten minutes at 20,000×g (Sorvall RC-2), 4° C. The supernatant was discarded, and the pellet was resuspended and centrifuged as before. The pellet was resuspended in 20 ml Tris-HCl buffer containing two International Units/ml of adenosine deaminase (Sigma type III from calf intestinal mucosa), incubated at 37° C. for 30 minutes, then subsequently at 0° C. for ten minutes. The homogenate was again centrifuged, and the final pellet was resuspended in ice-cold 0.05M Tris-HCl buffer pH 7.7 to a concentration of 20 mg/ml original wet tissue weight and used immediately.
Tissue homogenate (10 mg/ml) was incubated in 0.05M Tris-HCl buffer pH 7.7 containing 1.0 nM [^3 H]-N^6 -cyclohexyladenosine[^3 H]-CHA) with or without test agents in triplicate for one hour at 25° C. Incubation volume was 2 ml. Unbound [^3 H]-CHA was separated by rapid filtration under reduced pressure through Whatman glass fiber (GF/B) filters. The filters were rinsed three times with 5 ml of ice cold 0.05M Tris-HCl buffer pH 7.7. The radio-labeled ligand retained on the filter was measured by liquid scintillation spectrophotometry after shaking the filters for one hour or longer on a mechanical shaker in 10 ml of Beckman Ready-Solv HP scintillation cocktail.
Nonspecific binding was defined as the binding which occurred in the presence of 1 mM theophylline. The concentration of test agent which inhibited 50% of the specific binding (IC50) was determined by nonlinear computer curve fit. The Scatchard plot was calculated by linear regression of the line obtained by plotting the amount of radioligand bound (pmoles/gram of tissue) [formula] Since the amount of radioligand bound was a small fraction of the total amount added, free radioligand was defined as the concentration (nM) of radioligand added to the incubation mixture. The Hill coefficient was calculated by linear regression of the line obtained by plotting the log of the bound radioligand vs the log of the [formula] The maximal number of binding sites (Bmax) was calculated from the Scatchard plot.

OC[C@H]1O[C@@H](n2cnc3c(NCCC(c4ccccc4)c4ccccc4)ncnc32)[C@H](O)[C@@H]1O [Example 2, N^6-(3,3-Diphenylpropyl)adenosine]
IC50: 0.139 µM
